The source made the active and inactive calls.
Experiments:
[1] = biological target: Female germline-specific tumor suppressor gld-1 (Caenorhabditis elegans, UniProt Q17339); test: inhibitors of GLD-1 binding to TGE RNA, dose response, biochemical, fluorescence polarization, C. elegans (AID 2802);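 further: fluorescence polarization of labeled TGE RNA bound by purified gld-1 protein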
[2] = biological target: Protein Rev (Human immunodeficiency virus type 1 group M subtype B (isolate HXB2)(HIV-1), UniProt P04618); test: inhibitors of Rev binding to RRE RNA, dose response, biochemical, fluorescence polarization, HIV-1 (AID 434976); set-up: species or system Human immunodeficiency virus 1
[3] = biological target: T1, SUMO-activating enzyme (Homo sapiens, UniProt Q9UBT2); test: inhibitors of in vitro SUMOylation cascade, primary screen, biochemical, HTRF, uHTS (AID 2006); type: protein-complex assay
[4] = biological target: T1, SUMO-activating enzyme; test: SUMOylation inhibitor hit validation, confirmation, SUMOylation inhibitor project, biochemical, AlphaScreen (AID 2018); type: functional
[5] = biological target: T2, Runt-related transcription factor 1/Core-binding factor subunit beta (Homo sapiens, UniProt Q01196+Q13951); test: inhibitors of RUNX1 Runt–CBFb-SMMHC binding, biochemical, TR-FRET (AID 1438); type: protein assay
[6] = biological target: T2, Runt-related transcription factor 1/Core-binding factor subunit beta; test: inhibitors of RUNX1 Runt–CBFb-SMMHC binding, primary screen, biochemical, FRET, Cerulean-Runt, Venus-CBFb-SMMHC, uHTS (AID 1434); type: protein assay;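 further: partner is the CBFb-SMMHC leukemia fusion protein rather than wild-type CBFb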
[7] = biological target: Troponin, cardiac muscle (Homo sapiens, UniProt P19429+P45379+P63316); test: Fluorescence-based biochemical high throughput dose response assay for activators of the calcium sensitivity of cardiac Regulated Thin Filaments (RTF). [Related pubchem assays (depositor defined):AID493008, AID493018, AID504382, AID504383]; type: protein-complex assay
[8] = biological target: T3, Estrogen receptor (Homo sapiens, UniProt P03372);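 further: potency for inhibiting coactivator peptide recruitment to the receptor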
T3 sequence (P03372 whole entry): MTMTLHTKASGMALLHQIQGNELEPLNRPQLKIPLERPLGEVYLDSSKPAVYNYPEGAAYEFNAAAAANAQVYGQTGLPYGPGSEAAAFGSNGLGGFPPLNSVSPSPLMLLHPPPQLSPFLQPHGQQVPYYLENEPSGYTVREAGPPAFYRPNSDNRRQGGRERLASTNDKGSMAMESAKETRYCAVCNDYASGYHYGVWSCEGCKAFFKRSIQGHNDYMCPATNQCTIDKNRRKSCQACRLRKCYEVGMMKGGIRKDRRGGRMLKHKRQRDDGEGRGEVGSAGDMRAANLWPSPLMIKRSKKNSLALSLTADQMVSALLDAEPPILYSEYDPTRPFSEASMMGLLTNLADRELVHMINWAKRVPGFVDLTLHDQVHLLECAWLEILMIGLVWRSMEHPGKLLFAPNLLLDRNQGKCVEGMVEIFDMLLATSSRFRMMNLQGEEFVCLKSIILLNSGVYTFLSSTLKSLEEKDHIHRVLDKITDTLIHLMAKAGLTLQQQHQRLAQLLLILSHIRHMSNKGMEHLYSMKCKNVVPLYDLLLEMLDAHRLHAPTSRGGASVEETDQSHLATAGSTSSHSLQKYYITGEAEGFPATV

[9] = biological target: T4, Short transient receptor potential channel 4 (Mus musculus, UniProt Q9QUQ5); test: mouse TRPC4 channel activators, dose response, cell-based, HEK293 TRPC4/mu-opioid, Fluo-4 calcium (AID 434937); type: functional
T4 sequence (Q9QUQ5 whole entry): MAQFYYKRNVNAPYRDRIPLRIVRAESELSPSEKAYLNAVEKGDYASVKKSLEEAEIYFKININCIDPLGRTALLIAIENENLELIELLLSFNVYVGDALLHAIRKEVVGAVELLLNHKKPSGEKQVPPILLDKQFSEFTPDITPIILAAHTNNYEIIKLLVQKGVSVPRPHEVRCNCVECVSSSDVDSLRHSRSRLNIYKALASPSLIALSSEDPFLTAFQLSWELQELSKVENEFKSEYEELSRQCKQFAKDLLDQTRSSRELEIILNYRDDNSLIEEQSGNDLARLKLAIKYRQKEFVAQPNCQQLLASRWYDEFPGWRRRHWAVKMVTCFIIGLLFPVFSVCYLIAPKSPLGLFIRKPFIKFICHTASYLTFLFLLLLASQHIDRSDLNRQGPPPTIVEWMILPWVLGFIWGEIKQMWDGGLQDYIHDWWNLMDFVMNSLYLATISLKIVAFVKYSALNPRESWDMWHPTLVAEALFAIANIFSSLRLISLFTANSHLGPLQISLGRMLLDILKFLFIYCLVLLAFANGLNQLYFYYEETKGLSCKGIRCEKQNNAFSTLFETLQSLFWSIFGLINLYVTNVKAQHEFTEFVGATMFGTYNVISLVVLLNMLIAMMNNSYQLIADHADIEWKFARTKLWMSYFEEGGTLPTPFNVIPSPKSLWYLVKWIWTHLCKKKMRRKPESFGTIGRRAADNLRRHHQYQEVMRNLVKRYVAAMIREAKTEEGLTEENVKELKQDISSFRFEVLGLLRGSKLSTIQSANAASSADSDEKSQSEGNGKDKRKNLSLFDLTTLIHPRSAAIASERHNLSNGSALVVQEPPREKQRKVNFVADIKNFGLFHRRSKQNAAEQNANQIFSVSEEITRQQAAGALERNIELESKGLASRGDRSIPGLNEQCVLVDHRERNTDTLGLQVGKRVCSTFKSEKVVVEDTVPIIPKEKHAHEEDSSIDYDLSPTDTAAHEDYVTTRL

[10] = biological target: T5, Alkaline phosphatase, tissue-nonspecific isozyme (Homo sapiens, UniProt P05186); test: human TNAP enzyme inhibitors, SAR follow-up, biochemical, luminescent, dose response (AID 1056)
T5 sequence (P05186 whole entry): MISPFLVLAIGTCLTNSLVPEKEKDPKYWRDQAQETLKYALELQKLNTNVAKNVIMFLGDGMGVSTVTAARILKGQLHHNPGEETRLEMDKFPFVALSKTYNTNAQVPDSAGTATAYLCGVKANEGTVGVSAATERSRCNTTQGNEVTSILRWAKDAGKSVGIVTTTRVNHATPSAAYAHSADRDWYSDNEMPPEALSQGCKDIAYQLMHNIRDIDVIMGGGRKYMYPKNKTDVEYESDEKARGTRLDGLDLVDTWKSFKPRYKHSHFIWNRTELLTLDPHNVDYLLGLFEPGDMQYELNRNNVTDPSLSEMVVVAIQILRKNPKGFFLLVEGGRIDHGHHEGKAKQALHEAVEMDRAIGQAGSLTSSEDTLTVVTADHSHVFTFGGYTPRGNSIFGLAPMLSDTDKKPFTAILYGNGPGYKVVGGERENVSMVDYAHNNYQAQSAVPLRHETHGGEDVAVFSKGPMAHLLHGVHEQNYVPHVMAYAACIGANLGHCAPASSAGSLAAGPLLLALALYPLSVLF

[11] = biological target: Alkaline phosphatase, placental type (Homo sapiens, UniProt P05187); test: PLAP enzyme inhibitors, confirmation, biochemical, luminescence (AID 1512); type: functional
[12] = biological target: Peroxisome proliferator-activated receptor gamma/Nuclear receptor coactivator 3 (Homo sapiens, UniProt P37231); test: TR-FRET dose response biochemical High Throughput Screening assay for agonists of the steroid receptor coactivator 3 (SRC-3) recruitment by the peroxisome proliferator-activated receptor gamma (PPAR gamma): non-selective agonists. [Related pubchem assays: 1301 (Confirmation screen.), 1048 (Primary screen.)]; type: functional
[13] = biological target: Peroxisome proliferator-activated receptor gamma/Nuclear receptor coactivator 2 (Homo sapiens, UniProt P37231); test: TR-FRET dose response biochemical High Throughput Screening assay for agonists of the steroid receptor coactivator 2 (SRC-2) recruitment by the peroxisome proliferator-activated receptor gamma (PPAR gamma): non-selective agonists. [Related pubchem assays: 1297, 1032 ]; type: functional
[14] = biological target: Peroxisome proliferator-activated receptor gamma/Nuclear receptor coactivator 1 (Homo sapiens, UniProt P37231); test: TR-FRET dose response biochemical High Throughput Screening assay for agonists of the steroid receptor coactivator 1 (SRC-1) recruitment by the peroxisome proliferator-activated receptor gamma (PPAR gamma): non-selective agonists. [Related pubchem assays (depositor defined):AID1300, AID1808, AID504735, AID631]; type: protein assay
[15] = growth suppression of beta-catenin-knockout colon cells, dose response, cell-based, HCT116, human colon tumor (AID 1045); type: functional;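 further: HCT116 colon tumor cells with beta catenin knocked out; cells exposed to compound for 60 hours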
[16] = cells; type: functional
[17] = test system: INS1; test: beta cell apoptosis inhibitors, cytokine rescue, dose response, luminescence, retest (AID 449756); type: functional, cell-based; conditions: Rattus norvegicus;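 further: cell death triggered by IL-1 beta plus TNF-alpha plus IFN-gamma mixture; protective hits raise ATP signal compared with cytokine alone wells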
[18] = growth suppression of PTEN-null colon cells, dose response, cell-based, HCT116 PTEN knockout (AID 1047); type: functional;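 further: HCT116 colon tumor cells with PTEN knocked out; cells exposed to compound for 60 hours before readout; potency for loss of cell viability measured by luminescence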
[19] = THP-1 cell cytotoxicity, dose response, cytotoxicity control for non-replicating M. tuberculosis project (AID 489025); type: functional
[20] = Vero E6 cell cytotoxicity, dose response, cytotoxicity control for non-replicating M. tuberculosis project, secondary assay (AID 492998); type: functional, VeroE6; conditions: Vero C1008
[21] = HepG2 cell cytotoxicity, dose response, cytotoxicity control for non-replicating M. tuberculosis project (AID 489018); type: functional; conditions: Mycobacterium tuberculosis
[22] = biological target: T6, Corticotropin-releasing factor receptor 2/Corticotropin-releasing factor-binding protein (Homo sapiens, UniProt P24387+Q13324); test: Dose Response confirmation of uHTS hits for small molecule antagonists of the CRF-binding protein and CRF-R2 receptor complex.; type: functional; conditions: read-out: IC50_Mean
T6 sequence (Q13324 whole entry): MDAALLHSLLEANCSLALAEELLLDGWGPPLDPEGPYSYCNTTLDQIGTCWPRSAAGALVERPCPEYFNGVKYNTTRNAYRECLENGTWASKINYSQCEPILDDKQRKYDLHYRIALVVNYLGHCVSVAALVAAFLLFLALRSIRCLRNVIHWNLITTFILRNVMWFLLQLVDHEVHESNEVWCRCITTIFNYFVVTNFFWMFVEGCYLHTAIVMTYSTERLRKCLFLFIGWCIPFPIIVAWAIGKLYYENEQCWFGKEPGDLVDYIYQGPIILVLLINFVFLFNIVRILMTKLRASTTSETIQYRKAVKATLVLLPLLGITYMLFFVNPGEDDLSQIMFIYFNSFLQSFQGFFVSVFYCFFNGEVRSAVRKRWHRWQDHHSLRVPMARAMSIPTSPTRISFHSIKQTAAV
T6 sequence (P24387 whole entry): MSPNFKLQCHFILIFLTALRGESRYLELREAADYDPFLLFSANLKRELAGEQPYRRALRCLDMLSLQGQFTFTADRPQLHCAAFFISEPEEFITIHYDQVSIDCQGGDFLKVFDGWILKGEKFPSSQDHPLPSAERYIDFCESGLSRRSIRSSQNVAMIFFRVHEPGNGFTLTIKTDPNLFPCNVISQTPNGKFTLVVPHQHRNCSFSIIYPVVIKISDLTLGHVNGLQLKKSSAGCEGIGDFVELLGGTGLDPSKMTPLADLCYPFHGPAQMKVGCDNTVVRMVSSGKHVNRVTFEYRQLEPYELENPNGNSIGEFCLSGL

[23] = biological target: T6, Corticotropin-releasing factor receptor 2/Corticotropin-releasing factor-binding protein; test: activators of CRF receptor 2 with binding protein – uHTS hits, confirmation (AID 602473); type: functional; conditions: read-out: EC50_Mean
[24] = biological target: Glyceraldehyde-3-phosphate dehydrogenase (Homo sapiens, UniProt P04406)
[25] = biological target: Ephrin type-A receptor 4 (Mus musculus, UniProt Q03137); test: inhibitors of EphA4 binding to KYL peptide, primary screen, biochemical, colorimetric, mouse EphA4 (AID 689); type: functional
[26] = biological target: SUMO E1/E2 (Homo sapiens, UniProt P63279+Q9UBE0+Q9UBT2); test: SAR analysis of SUMOylation using HTRF in an in-Vitro dose response assay. [Related pubchem assays (depositor defined):AID2006, AID2011, AID2018, AID2069, AID2658]; type: functional

CC(CCC(C)C(C)(C)C)[C@@H]1CC[C@H]2C3C[C@H](OS(O)(=S)=S)[C@H]4C[C@H](OS(O)(=S)=S)[C@@H](OS(O)(=S)=S)C[C@]4(C)[C@H]3CC[C@]12C.Nc1ncc[nH]1 (some centres undefined)
IC50 [1]: 3.66 µM (active) | IC50 [2]: 8.34 µM (active)

Cc1ccc(NC(=O)c2ccccc2OCC(=O)Nc2cccc(Cl)c2C)nc1
IC50 [3]: 17.8 µM (active) | IC50 [4]: 34.5 µM (active)

Cc1cccn2c(=O)c(/C=C(\C#N)C(=O)NCc3ccco3)c(N3CCC(C(N)=O)CC3)nc12
IC50 [5]: > 100 µM (inactive) | IC50 [6]: > 100 µM (inactive)

O=C(Nc1nc(-c2nc3ccccc3s2)cs1)C1COc2ccccc2O1 (centres undefined)
EC50 [7]: > 71.5 µM (inactive) | IC50 [8]: 25.1 µM (active)

CCn1cc(CN2CCC(n3nccc3NC(=O)CCOc3ccccc3)CC2)cn1
EC50 [9]: 1.19 µM (active)

CCc1nnc(SCC(=O)c2ccc(O)c(O)c2)[nH]1
IC50 [10]: 10.9 µM (active) | IC50 [11]: 3.25 µM (active)

CCOc1cc(C2C3=C(CCCC3=O)N(CCC(=O)O)C3=C2C(=O)CCC3)ccc1OS(=O)(=O)c1ccc(C)cc1
IC50 [5]: 30.5 µM (active) | IC50 [6]: 0.629 µM (active)

CCCC(C)NC(=O)c1ccc(OCc2ccc(Cl)cc2)c(OC)c1 (centres undefined)
EC50 [12]: 13.8 µM (not active) | EC50 [13]: > 79.4 µM (not active) | EC50 [14]: 157 µM (inactive)

O=C(Cc1ccccc1)N/N=C/c1ccc([N+](=O)[O-])s1
EC50 [15]: 8.44 µM (active) | IC50 [16]: 11.1 µM (active) | AC50 [17]: 6.38 µM (active) | EC50 [18]: 9.53 µM (active) | CC50 [19]: 26.6 µM (active) | CC50 [20]: 12.5 µM (active) | CC50 [21]: 16 µM (active)

CCOc1cc(C2C(C(=O)OC)=CN(C3CCCC3)C=C2C(=O)OC)cc(Br)c1O
IC50 [22]: > 47.1 µM (inactive) | IC50 [1]: > 59.6 µM (inactive) | IC50 [2]: > 75.4 µM (not active) | EC50 [23]: > 53 µM (inactive)

CCn1c(N2CCN(C(S)=NCC(C)C)CC2)nc2ccccc21
EC50 [9]: 1.68 µM (active)

O=C(c1cc(-c2ccc(Cl)cc2Cl)n[nH]1)N1CCOCC1
IC50 [24]: > 100 µM (not active) | IC50 [11]: > 100 µM (inactive)

COc1ccc(-n2c(NC(=O)c3ccc(Br)o3)c(C#N)c3nc4ccccc4nc32)cc1
IC50 [3]: 17.8 µM (active) | IC50 [25]: > 100 µM (not active) | IC50 [26]: 20.2 µM (active) | IC50 [4]: 8.09 µM (active)

From ChEMBL document CHEMBL1201862, “PubChem BioAssay data set” (2004)
